Measurements from PubChem BioAssay (NCI).
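1) Cells in 96-well plates. 2) Compound, 48 h, 5 concentrations. 3) Linear interpolation between surrounding doses. 4) Unreached endpoint = highest concentration. TGI is the concentration that stops growth completely.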

How the values were obtained:
Assay in all cases: DTP human tumour cell line panel, 48 h
[1] = test system: 786-0 renal
[2] = test system: A498 renal
[3] = test system: A549 NSCLC
[4] = test system: ACHN renal
[5] = test system: CAKI-1 renal
[6] = test system: CCRF-CEM leukemia
[7] = test system: COLO 205 colon
[8] = test system: DLD-1 colon
[9] = test system: DMS 114 small cell lung
[10] = test system: DMS 273 small cell lung
[11] = test system: EKVX NSCLC
[12] = test system: HCC-2998 colon
[13] = test system: HCT-116 colon
[14] = test system: HL-60(TB) leukemia
[15] = test system: HOP-18 NSCLC
[16] = test system: HOP-62 NSCLC
[17] = test system: HOP-92 NSCLC
[18] = test system: HT29 colon
[19] = test system: IGROV1 ovarian
[20] = test system: K-562 leukemia
[21] = test system: KM12 colon
[22] = test system: KM20L2 colon
[23] = test system: LOX IMVI melanoma
[24] = test system: LXFL 529 NSCLC
[25] = test system: M14 melanoma
[26] = test system: M19-MEL melanoma
[27] = test system: MALME-3M melanoma
[28] = test system: MOLT-4 leukemia
[29] = test system: NCI-H226 lung
[30] = test system: NCI-H23 lung
[31] = test system: NCI-H460 lung
[32] = test system: NCI-H522 lung
[33] = test system: OVCAR-3 ovarian
[34] = test system: OVCAR-4 ovarian
[35] = test system: OVCAR-5 ovarian
[36] = test system: OVCAR-8 ovarian
[37] = test system: RPMI-8226 leukemia
[38] = test system: RXF 393 renal
[39] = test system: RXF-631 renal
[40] = test system: SF-268 CNS
[41] = test system: SF-295 CNS
[42] = test system: SF-539 CNS
[43] = test system: SK-MEL-2 melanoma
[44] = test system: SK-MEL-28 melanoma
[45] = test system: SK-MEL-5 melanoma
[46] = test system: SK-OV-3 ovarian
[47] = test system: SN12C renal
[48] = test system: SNB-19 CNS
[49] = test system: SNB-75 CNS
[50] = test system: SR leukemia
[51] = test system: SW-620 colon
[52] = test system: TK-10 renal
[53] = test system: U251 CNS
[54] = test system: UACC-257 melanoma
[55] = test system: UACC-62 melanoma
[56] = test system: UO-31 renal
[57] = test system: HCT-15 colon
[58] = test system: SNB-78 CNS
[59] = test system: XF 498 CNS

`CC(C)(C)OC(=O)C#CC[C@H]1CCCC1/C=C/C(O)=C1/C(=O)NC(CCCNC(=O)OC(C)(C)C)C1=O` (stereo not given in full) was tested, and the TGI [1] was greater than 100 µM, the TGI [2] was greater than 100 µM and the TGI [3] was greater than 100 µM. It also gave a TGI [4] greater than 100 µM, a TGI [5] greater than 100 µM and a TGI [6] of 88.5 µM. For the same molecule, the TGI [7] was 33.6 µM, the TGI [8] was greater than 100 µM and the TGI [9] was 61.3 µM. For the same molecule, the TGI [10] was 65.9 µM, the TGI [11] was greater than 100 µM and the TGI [12] was greater than 100 µM. The TGI [13] was 23.9 µM, the TGI [14] was 73.7 µM and the TGI [15] was greater than 100 µM. It also gave a TGI [16] greater than 100 µM, a TGI [17] of 59 µM and a TGI [18] greater than 100 µM. For the same molecule, the TGI [19] was greater than 100 µM, the TGI [20] was 89.3 µM and the TGI [21] was greater than 100 µM. The TGI [22] was 53.2 µM, the TGI [23] was 40.2 µM and the TGI [24] was 53.8 µM. The TGI [25] was greater than 100 µM, the TGI [26] was 67.9 µM and the TGI [27] was 57.6 µM. It also gave a TGI [28] of 75.9 µM, a TGI [29] greater than 100 µM and a TGI [30] of 78.3 µM. For the same molecule, the TGI [31] was 61.6 µM, the TGI [32] was 40.7 µM and the TGI [33] was greater than 100 µM. The TGI [34] was 94.1 µM, the TGI [35] was greater than 100 µM and the TGI [36] was 31.6 µM. For the same molecule, the TGI [37] was 84.5 µM, the TGI [38] was 30 µM and the TGI [39] was 44.9 µM. The TGI [40] was 75.3 µM, the TGI [41] was greater than 100 µM and the TGI [42] was 83.1 µM. For the same molecule, the TGI [43] was 34.4 µM, the TGI [44] was 36.1 µM and the TGI [45] was greater than 100 µM. For the same molecule, the TGI [46] was greater than 100 µM, the TGI [47] was greater than 100 µM and the TGI [48] was 88.5 µM. The TGI [49] was greater than 100 µM, the TGI [50] was greater than 100 µM and the TGI [51] was greater than 100 µM. The TGI [52] was 84.5 µM, the TGI [53] was 74.8 µM and the TGI [54] was 61.4 µM. The TGI [55] was 34.9 µM and the TGI [56] was greater than 100 µM.
`COc1cc2c(cc1OC)C(N(C)C)C(c1ccccc1)=C2Cl` (stereo not given) was tested, and the TGI [1] was 73.9 µM, the TGI [2] was 59.7 µM and the TGI [6] was greater than 100 µM. The TGI [7] was 32.6 µM, the TGI [8] was 32.3 µM and the TGI [10] was 30.9 µM. For the same molecule, the TGI [57] was 34.1 µM, the TGI [14] was 65.8 µM and the TGI [15] was greater than 100 µM. It also gave a TGI [16] of 98.8 µM, a TGI [17] of 36.7 µM and a TGI [18] of 36.4 µM. For the same molecule, the TGI [19] was 47.5 µM, the TGI [20] was greater than 100 µM and the TGI [21] was 57.9 µM. For the same molecule, the TGI [22] was 58.6 µM, the TGI [23] was 31.9 µM and the TGI [25] was 34.3 µM. The TGI [26] was 39.1 µM, the TGI [28] was 39.6 µM and the TGI [29] was 56.4 µM. It also gave a TGI [30] of 32.4 µM, a TGI [31] of 39.2 µM and a TGI [32] of 21.7 µM. For the same molecule, the TGI [33] was 40.8 µM, the TGI [34] was 65 µM and the TGI [35] was greater than 100 µM. For the same molecule, the TGI [36] was 47.8 µM, the TGI [37] was 46.3 µM and the TGI [38] was 29.3 µM. The TGI [39] was 30.5 µM, the TGI [41] was 49.7 µM and the TGI [42] was 37.7 µM. The TGI [43] was 36 µM, the TGI [44] was 36 µM and the TGI [46] was 45.9 µM. It also gave a TGI [47] of 43.3 µM, a TGI [48] greater than 100 µM and a TGI [49] of 48.7 µM. The TGI [50] was 50.4 µM, the TGI [51] was 29.8 µM and the TGI [52] was greater than 100 µM. For the same molecule, the TGI [53] was 30.3 µM, the TGI [54] was 40.5 µM and the TGI [56] was 32 µM.
`COc1ccc(-c2cc(=O)c3cc4c(cc3[nH]2)OCO4)c(OC)c1OC` showed a TGI [1] greater than 100 µM, a TGI [3] greater than 100 µM and a TGI [4] greater than 100 µM. It also gave a TGI [5] greater than 100 µM, a TGI [6] greater than 100 µM and a TGI [7] greater than 100 µM. The TGI [8] was greater than 100 µM, the TGI [9] was greater than 100 µM and the TGI [10] was greater than 100 µM. For the same molecule, the TGI [11] was greater than 100 µM, the TGI [12] was greater than 100 µM and the TGI [13] was greater than 100 µM. The TGI [57] was greater than 100 µM, the TGI [14] was greater than 100 µM and the TGI [15] was greater than 100 µM. It also gave a TGI [16] greater than 100 µM, a TGI [17] greater than 100 µM and a TGI [18] greater than 100 µM. For the same molecule, the TGI [19] was greater than 100 µM, the TGI [20] was greater than 100 µM and the TGI [21] was greater than 100 µM. For the same molecule, the TGI [22] was greater than 100 µM, the TGI [23] was greater than 100 µM and the TGI [24] was greater than 100 µM. It also gave a TGI [25] greater than 100 µM, a TGI [26] greater than 100 µM and a TGI [27] greater than 100 µM. The TGI [28] was greater than 100 µM, the TGI [29] was greater than 100 µM and the TGI [30] was greater than 100 µM. The TGI [31] was greater than 100 µM, the TGI [32] was greater than 100 µM and the TGI [33] was greater than 100 µM. It also gave a TGI [34] greater than 100 µM, a TGI [36] greater than 100 µM and a TGI [37] greater than 100 µM. It also gave a TGI [38] greater than 100 µM, a TGI [40] greater than 100 µM and a TGI [41] greater than 100 µM. It also gave a TGI [42] greater than 100 µM, a TGI [43] greater than 100 µM and a TGI [44] greater than 100 µM. It also gave a TGI [45] greater than 100 µM, a TGI [46] greater than 100 µM and a TGI [47] greater than 100 µM. For the same molecule, the TGI [48] was greater than 100 µM, the TGI [49] was 82.2 µM and the TGI [58] was greater than 100 µM. The TGI [50] was 70.9 µM, the TGI [51] was greater than 100 µM and the TGI [52] was greater than 100 µM. It also gave a TGI [53] greater than 100 µM, a TGI [55] greater than 100 µM and a TGI [56] greater than 100 µM. It also gave a TGI [59] greater than 100 µM.
`CCCCCCCCCc1cc(=O)c2ccc(OCc3ccccc3)cc2o1` was tested, and the TGI [1] was greater than 100 µM, the TGI [3] was greater than 100 µM and the TGI [4] was greater than 100 µM. For the same molecule, the TGI [5] was 13.4 µM, the TGI [6] was greater than 100 µM and the TGI [7] was greater than 100 µM. It also gave a TGI [8] greater than 100 µM, a TGI [9] greater than 100 µM and a TGI [10] greater than 100 µM. For the same molecule, the TGI [11] was greater than 100 µM, the TGI [12] was greater than 100 µM and the TGI [13] was greater than 100 µM. It also gave a TGI [57] greater than 100 µM, a TGI [14] of 46.4 µM and a TGI [15] greater than 100 µM. The TGI [16] was greater than 100 µM, the TGI [17] was greater than 100 µM and the TGI [18] was greater than 100 µM. The TGI [19] was greater than 100 µM, the TGI [20] was greater than 100 µM and the TGI [21] was greater than 100 µM. It also gave a TGI [22] greater than 100 µM, a TGI [23] greater than 100 µM and a TGI [24] greater than 100 µM. It also gave a TGI [25] greater than 100 µM, a TGI [26] greater than 100 µM and a TGI [27] greater than 100 µM. It also gave a TGI [29] greater than 100 µM, a TGI [30] greater than 100 µM and a TGI [31] greater than 100 µM. It also gave a TGI [32] greater than 100 µM, a TGI [33] greater than 100 µM and a TGI [34] greater than 100 µM. It also gave a TGI [35] greater than 100 µM, a TGI [36] greater than 100 µM and a TGI [38] greater than 100 µM. It also gave a TGI [40] greater than 100 µM, a TGI [41] greater than 100 µM and a TGI [42] greater than 100 µM. It also gave a TGI [43] greater than 100 µM, a TGI [44] greater than 100 µM and a TGI [45] greater than 100 µM. The TGI [46] was greater than 100 µM, the TGI [47] was greater than 100 µM and the TGI [48] was greater than 100 µM. The TGI [49] was 72.3 µM, the TGI [58] was greater than 100 µM and the TGI [51] was greater than 100 µM. The TGI [52] was greater than 100 µM, the TGI [53] was greater than 100 µM and the TGI [54] was greater than 100 µM. It also gave a TGI [55] greater than 100 µM, a TGI [56] greater than 100 µM and a TGI [59] greater than 100 µM.
